Values joined by “and” are separate entries in the source; they are usually repeats but may differ in a detail not shown here. Equal values may be shown once.
Legend:
Plasmodium falciparum = test: Calibr Malaria Delayed Death Assay SOP; assay type: functional, organism-based; details: for IC50: Plasmodium falciparum
Leishmania donovani = test: Leishmania intramacrophage assay; assay type: functional, organism-based; details: for IC50: Leishmania donovani
[1] = microbe, parasite or virus in culture; details: Mycobacterium tuberculosis, 72 h, read-out: pIC50 (converted)
[2] = microbe, parasite or virus in culture; details: Mycobacterium tuberculosis, 96 h, read-out: pIC50 (converted)

| SMILES | pIC50 (Leishmania donovani) | IC50 (Leishmania donovani) [µM] | other results |
| --- | --- | --- | --- |
| Cc1cccc(CNC(CN2CCN(C)CC2)c2ccccc2)c1 (centres undefined) | 5.046 | 6.36 | pIC50 (Plasmodium falciparum): 6.605; IC50 (Plasmodium falciparum): 0.185 µM |
| Cc1cc2nc(-c3cn(C4CCNCC4)nn3)[nH]c2cc1C | 4.64 | 21.2 | pIC50 (Plasmodium falciparum): 6.549; IC50 (Plasmodium falciparum): 0.273 µM |
| CN1CCC(N(Cc2ccco2)S(=O)(=O)c2ccc(Br)cc2Cl)CC1 | 4.643 | 20.9 | pIC50 (Plasmodium falciparum): 6.36; IC50 (Plasmodium falciparum): 0.473 µM |
| CC(O)CN1CCC(CNCc2cccc(OC(F)(F)F)c2)CC1 (centres undefined) | 4.85 | 16.8 | pIC50 (Plasmodium falciparum): 6.17; IC50 (Plasmodium falciparum): 0.909 µM |
| O=C(c1c[nH]cn1)N1CCC(F)(F)C2(CCN(c3cccc(F)c3)C2)C1 (centres undefined) |  | > 50.1 | IC50 [1]: > 50.1 µM; IC50 [2]: > 50.1 µM |
| COc1cc(C)c(-c2ccc(F)c3c2OC(CN)C3)cc1C (centres undefined) | 4.996 | 7.27 | IC50 [1]: > 50.1 µM; IC50 [2]: > 50.1 µM |
| COc1c(F)cc(-c2cccc3c2OC(CN)C3)cc1F (centres undefined) | 4.693 | 19.2 | IC50 [1]: 36.7 µM; IC50 [2]: 22.9 µM |
| Clc1ccccc1C1(c2ccnc(CC3CC3)n2)CCNCC1 | 4.801 and 4.355 |  | pIC50 (Plasmodium falciparum): 6.68; IC50 (Plasmodium falciparum): 0.268 µM |
| Cc1ccc(CNC(CN2CCN(C)CC2)c2ccccc2)cc1 (centres undefined) | 5.055 | 12.8 | pIC50 (Plasmodium falciparum): 6.589; IC50 (Plasmodium falciparum): 0.247 µM |
| Cn1cc(CN2CCC(F)(F)C3(CCN(c4cnccn4)C3)C2)cn1 (centres undefined) |  | > 50.1 | IC50 [1]: > 50.1 µM; IC50 [2]: > 50.1 µM |
| Cc1nc(C2CCN(C)CC2)cc(N2CCOc3ccc(Cl)cc3C2)n1 | 4.959 | 14.9 | IC50 [1]: 32.6 µM; IC50 [2]: > 50.1 µM |
| CC(C)c1nc(-c2cc(C(=O)NCCN(C)C)c3ccccn23)cs1.O=C(O)C(F)(F)F | 4.846 | 18.9 | IC50 [1]: > 50.1 µM; IC50 [2]: > 50.1 µM |
| Cc1ccc(-c2nc(CNC(C)CCO)[nH]c2-c2ccccn2)cc1 (centres undefined) | 4.821 and 4.459 |  | pIC50 (Plasmodium falciparum): 5.824; IC50 (Plasmodium falciparum): 1.25 µM |
| COc1cc(OC)cc(-c2cccc3c2OC(CN)C3)c1 (centres undefined) | 4.734 | 18.3 | IC50 [1]: 1.33 µM; IC50 [2]: 20 µM |
| Clc1ccccc1C1(c2ccnc(-c3ccncc3)n2)CCNCC1 | 4.623 | 18.6 | pIC50 (Plasmodium falciparum): 6.636; IC50 (Plasmodium falciparum): 0.264 µM |
| Cc1ccc2[nH]c(-c3cn(C4CCNCC4)nn3)nc2c1C | 4.614 | 20.4 | pIC50 (Plasmodium falciparum): 6.454; IC50 (Plasmodium falciparum): 0.325 µM |
| c1ccc(C2CCCN(c3ncnc4c3CCNC4)CC2)cc1 (centres undefined) | 4.655 | 18.1 | IC50 [1]: > 50.1 µM; IC50 [2]: > 50.1 µM |
| Cc1cc2c(c(-c3cncc(C(=O)N4CCCC4)n3)c1)OC(CN)C2 (centres undefined) | 4.717 | 27.5 |  |
| OCc1ccncc1NCc1cnc(-c2ccccn2)s1 |  | > 50.1 |  |
| CNS(=O)(=O)c1cccc(C(C)NCc2cccc(OC)c2)c1 (centres undefined) |  | > 50.1 |  |
| Cc1cc(C(F)(F)F)nc(N2CCN3CCCC3C2)n1 (centres undefined) |  | > 50.1 |  |
| CN1CCN(C2COC3(CCN(Cc4ccc(F)cc4)CC3)C2)CC1 (centres undefined) |  | > 50.1 |  |
| CCc1cc(N2CCCNCC2)n2nc(C)c(C)c2n1 |  | > 50.1 |  |
| COC(=O)c1sc2nc3c(c(C(F)(F)F)c2c1N)CN(C(C)=O)CC3 |  | > 50.1 |  |
| CC(=O)c1sc2nc3c(c(C(F)(F)F)c2c1N)CN(C(C)=O)CC3 |  | > 50.1 |  |
| CCc1ccc(-c2ncc3c(n2)N(C)CCN(CCN(C)C)C3=O)cc1 | 4.813 | 10.3 |  |
| Clc1ccccc1C1(c2ccnc(-c3ncccn3)n2)CCNCC1 |  | > 50.1 |  |

| SMILES | pIC50 (Leishmania donovani) | IC50 (Leishmania donovani) [µM] | other results |
| --- | --- | --- | --- |
| O=C(O)C1CCCN1c1nc(-c2ccc(Cl)cc2)cc(C(F)(F)F)n1 (centres undefined) |  | > 50.1 |  |
| CC(Cn1cccn1)NC(=O)NCCc1cccnc1 (centres undefined) |  | > 50.1 |  |
| COc1ccc(C(NCc2ccc(C#N)cc2)C2CC2)cc1 (centres undefined) |  | > 50.1 |  |
| NCC1CCCN(c2nc(-c3ccccc3)nc3c2CCNCC3)C1 (centres undefined) |  | 27.2 | IC50 [1]: 11.3 µM; IC50 [2]: 17.7 µM |
| COCCN(Cc1sccc1C)c1nc(C)nc2sccc12 |  | > 50.1 |  |
| CN(c1ncnc2c1cnn2C)C1CCCN(c2cccnn2)C1 (centres undefined) |  | > 50.1 |  |
| CC(O)CN1CCN(Cc2csc(-c3ncccn3)n2)CC1 (centres undefined) |  | > 50.1 |  |
| CN1CCN(c2ccc3ccc(C(=O)N4CCCO4)cn23)CC1 |  | > 50.1 |  |
| CN(CCc1noc(C2CC2)n1)C(=O)CN1C(=O)COc2ccccc21 |  | > 50.1 |  |
| Cc1ncc(CNc2cnccc2CO)s1 |  | > 50.1 |  |
| CN(CC1CC1)c1ccc2ccc(C(=O)NC3CCCCC3)cn12 |  | > 50.1 |  |
| CN(C)C(=O)CNC(=O)c1ccc2ccc(N(C)CC3CC3)n2c1 |  | > 50.1 |  |
| FC1(F)CCN(Cc2ccccn2)CC12CCN(c1cnccn1)C2 (centres undefined) |  | > 50.1 |  |
| OC(c1ccccc1)C1CCN(Cc2csc(-c3ncccn3)n2)CC1 (centres undefined) |  | > 50.1 |  |
| O=C(c1c[nH]cn1)N1CCC(F)(F)C2(CCN(c3cnccn3)C2)C1 (centres undefined) |  | > 50.1 |  |
| FC1(F)CCN(Cc2ccncc2)CC12CCN(c1cnccn1)C2 (centres undefined) |  | > 50.1 |  |
| CCN1CC(C(=O)NCc2ccc3c(c2)nc(C)n3C)CCC1=O (centres undefined) |  | > 50.1 |  |
| Cn1cc(CN2CCC(F)(F)C3(CCN(c4cccc(F)c4)C3)C2)cn1 (centres undefined) |  | > 50.1 |  |
| CCOc1ccc(CNCCCn2ccnc2)cc1Cl |  | 12.6 |  |
| COc1cccc(Nc2nc(-c3ccncc3)nc3c2CNCC3)c1.Cl | 4.645 and 4.976 |  |  |
| COCCNC(=O)c1ccc2ccc(N(C)CC3CC3)n2c1 |  | > 50.1 |  |
| N#Cc1ccc(CNC(=O)C2=NN(c3ccccc3)C(=O)CN2)cc1 |  | > 50.1 |  |
| CCC(CO)NC(=O)c1ccc2ccc(N(C)CC3CC3)n2c1 (centres undefined) |  | > 50.1 |  |
| Cc1c(-c2cc(C(F)F)nc3sc(C(N)=O)c(N)c23)cnn1C |  | > 50.1 |  |
| CCn1cnnc1CNc1nc(C)nc2scc(CC(C)C)c12 |  | > 50.1 |  |
| COc1ccc(C(NCc2cccc(C#N)c2)C(C)C)cc1 (centres undefined) |  | > 50.1 |  |
| N#CC1CCCN(c2nc(-c3ccccc3)nc3c2CCNCC3)C1 (centres undefined) | 4.667 | 20.6 |  |

| SMILES | pIC50 (Leishmania donovani) | IC50 (Leishmania donovani) [µM] | other results |
| --- | --- | --- | --- |
| Clc1ccccc1-c1cc(CNc2ncnc3c2CCNCC3)no1 | 4.821 | 12 |  |
| CCN(CC)c1ccc2ccc(C(=O)N(C)C)cn12 |  | > 50.1 |  |
| FC1(F)CCN(Cc2cccnc2)CC12CCN(c1ccccn1)C2 (centres undefined) |  | > 50.1 |  |
| Cc1nc2c(c(NCCc3nc4c(s3)CCCC4)n1)CCNCC2 |  | 44.3 |  |
| CN1CCCC(Cc2cncc(Br)c2)CC1 (centres undefined) |  | > 50.1 |  |
| CCOc1ccc(Cl)cc1CNCCCn1ccnc1 |  | 38.5 |  |
| NCC1CN(c2nc(-c3ccccc3)nc3c2CCNCC3)CCO1 (centres undefined) |  | > 50.1 |  |
| CN(Cc1ccncc1)C1COC2(CCN(Cc3ccccn3)CC2)C1 (centres undefined) |  | > 50.1 |  |
| CC(C)C[C@H](N)COc1cccc(F)c1Oc1ccccc1 | 4.696 | 12.5 |  |
| FC1(F)CCN(Cc2ccncc2)CC12CCN(Cc1ccccn1)C2 (centres undefined) |  | > 50.1 |  |
| Cc1nc(NCc2nnc(C)n2C)c2c(CC(C)C)csc2n1 |  | > 50.1 |  |
| O=C(c1cc[nH]n1)N1CCC(F)(F)C2(CCN(c3ccccn3)C2)C1 (centres undefined) |  | > 50.1 |  |
| Cn1cc(CN2CCC(F)(F)C3(CCN(c4ncc(F)cn4)C3)C2)cn1 (centres undefined) |  | > 50.1 |  |
| Cc1nnc(NCC2(c3ccccc3)CC2)c(C#N)c1C |  | > 50.1 |  |
| O=C(O)C1CCCN1c1nc(-c2ccc(Cl)c(Cl)c2)cc(C(F)(F)F)n1 (centres undefined) |  | > 50.1 |  |
| Cn1cc(CN2CCC(F)(F)C3(CCN(c4cccnc4)C3)C2)cn1 (centres undefined) |  | > 50.1 |  |
| O=c1[nH]cccc1-c1nccc(C2(c3ccccc3Cl)CCNCC2)n1 |  | > 50.1 |  |
| COc1ccc(OCCc2sc(C3(O)CCCNCC3)nc2C)cc1 (centres undefined) |  | > 50.1 |  |
| COCC(=O)Nc1ccnn1-c1ccc(Cl)cc1 | 4.861 | 13.5 |  |
| COc1ccc(-c2cccc3c2OC(CN)C3)cc1F (centres undefined) | 4.618 | 22.2 | IC50 [1]: > 50.1 µM; IC50 [2]: 34.7 µM |
| CCOc1ccc(CNCCCn2ccnc2)cc1OC |  | > 50.1 |  |
| Cl.NCC(=O)N1CCC(c2ccnc(Nc3cc(C(F)(F)F)ccn3)n2)C1 (centres undefined) | 4.798 | 15 |  |
| CCS(=O)(=O)c1ccc(N2CCC(NC(=O)CCC(C)C)CC2)cc1 |  | > 50.1 |  |
| COc1ccc(C(NCc2cccc(C#N)c2)C2CC2)cc1 (centres undefined) |  | > 50.1 |  |
| Cc1cnc(N2CCCC3(CCCN(C)C3)C2)nc1 (centres undefined) |  | > 50.1 |  |
| CN(CC1CC1)c1ccc2ccc(C(=O)NCCc3ccccc3)cn12 |  | > 50.1 |  |
